Experimental data taken from US8338482B2, “Modulating notch1 signaling pathway for treating neuroendocrine tumors” (Wisconsin Alumni Research Foundation, priority 2007, dated 2012).

Key:
[1] = test system: BON human GI carcinoid cancer cells; assay: MTT cell proliferation assay, GI carcinoid cells; type: cell-based
From the text: Cell Culture BON human GI carcinoid cancer cells, kindly provided by Drs. B. Mark Evers and Courtney M. Townsend, Jr. (University of Texas Medical Branch, Galveston, Tex., USA), and H727 human lung carcinoid cancer cells (American Type Tissue Collection, Manassas, Va., USA) were maintained as previously described (Sippel, R S et al., Raf-1 Activation Suppresses neuroendocrine marker and hormone levels in human gastrointestinal carcinoid cells. Am J Physiol Gastrointest Liver Physiol. 2003 August; 285(2):G245-54, Van Gompel J J et al., ZM336372, A Raf-1 Activator, Suppresses Growth and Neuroendocrine Hormone Levels in Carcinoid Tumor Cells. Mol Cancer Ther. 2005 June; 4(6):910-7)
Cell Proliferation Assay Carcinoid cancer cell proliferation was measured by the MTT (thiazolyl blue tetrazolium bromide; Sigma-Aldrich, St. Louis, Mo., USA) rapid calorimetric assay as previously described (Van Gompel J J et al., ZM336372, A Raf-1 Activator, Suppresses Growth and Neuroendocrine Hormone Levels in Carcinoid Tumor Cells. Mol Cancer Ther. 2005 June; 4(6):910-7). Briefly, cells were seeded in quadruplicate on 24-well plates and incubated for 24 hours to allow cell attachment. The cells were then treated with SBHA (Sigma-Aldrich) in concentrations of 0 to 50 μM and incubated for up to 6 days. The MTT assay was performed by replacing the standard medium with 250 μL of serum-free medium containing MTT (0.5 mg/mL) and incubated at 37° C. for 3 hours. After incubation, 750 μL of dimethyl sulfoxide (Sigma-Aldrich) was added to each well and mixed thoroughly. The plates were then measured at 540 nm using a spectrophotometer (μQuant; Bio-Tek Instruments, Winooski, Vt., USA).
Cell Culture BON human gastrointestinal (GI) carcinoid tumor cells, kindly provided by Drs. B. Mark Evers and Courtney M. Townsend, Jr. […]
Cell Proliferation Assay Carcinoid tumor cell proliferation was measured by the MTT (methylthiazolyldiphenyl-tetrazolium bromide; Sigma-Aldrich, St. Louis, Mo.) rapid colorimetric assay as previously described (Van Gompel J J et al., ZM336372, A Raf-1 Activator, Suppresses Growth and Neuroendocrine Hormone Levels in Carcinoid Tumor Cells. Mol Cancer Ther 2005; 4:910-917). […] The plates were then measured at 540 nm using a spectrophotometer (μQuant; Bio-Tek Instruments, Winooski, Vt.).

[2] = Serum VPA level in xenograft mice; type: in vivo; conditions: nude athymic NU/NU, mouse, ip, two hours after i.p. injection, last day, 366 mg/kg, read-out: median serum VPA level
Procedure: After confirming that VPA activates Notch1 signaling and suppresses carcinoid cell growth in vitro, we were interested in testing its efficacy in vivo. Subcutaneous human GI carcinoid tumors were developed in immunocompromised mice, which were then given daily intraperitoneal injections of VPA, and the tumors were measured every 4 days for 20 days. The tumors of the saline-treated control mice grew at a higher rate than did those of the VPA-treated animals (FIG. 28A). Indeed, the growth of the tumors in the treatment group was almost static. On the last day of the experiment, blood was drawn from each animal in the treatment group two hours after intraperitoneal injection of VPA.

[3] = test system: ASCL1 promoter; assay: ASCL1 promoter luciferase reporter assay; type: cell-based, human; conditions: GI carcinoid cells, VPA 48 hours
[4] = human patients treated for epilepsy; cited from earlier work
[5] = test system: H727 human lung carcinoid cancer cells; assay: Western blot analysis of pulmonary carcinoid cells; type: cell-based
[6] = test system: BON GI carcinoid cells; assay: Flow cytometry cell cycle analysis; type: cell-based, human; conditions: VPA
Procedure: Flow Cytometry GI carcinoid cells treated with or without VPA were labeled for 1 hour with 10 μM bromodeoxyuridine (Sigma-Aldrich) and counter-stained with 50 μg/ml propidium iodide and analyzed by two-dimensional flow cytometry (FACSCalibur flow cytometer; BD Biosciences) to detect both fluorescein and propidium iodide as previously described (Hirai, H. et al., Involvement of cell cycle progression in survival signaling through CD40 in the B-lymphocyte line WEHI-231. Cell Death Differ 2004; 11:261-269). Results were analyzed with FlowJo software (Tree Star, Ashland, Oreg.).

CCCC(CCC)C(=O)O [VPA, 2-propylpentanoic acid]
inhibition at 1000 µM ([1]; Homo sapiens, 144 h, 1 mM, 6 days of treatment, read-out: growth inhibition relative to untreated cells): 50%
cell growth ([1]; VPA 0 to 4 mM, up to 6 days): profound dose-dependent inhibition of growth
concentration at 2 h [2]: 46000 ng/mL
decrease in ASCL1 promoter luciferase activity [3]: ~4 fold
therapeutic range [4]: 50 to 125 µg/mL
ASCL1 protein ([5]; VPA): dose-dependent decrease
full-length Notch1 and NICD ([5]; VPA 0-4 mM, 2 days): increase
ASCL1 protein ([5]; VPA 4 mM, 2 days): undetectable levels
protein levels of CgA ([5]; VPA, two days): decreased
cells in the S phase [6]: decrease
percentage of cells in the G1 phase [6]: dose-dependent increase
